Reference: US7691985B2, “Skeletal-targeted radiation to treat bone-associated pathologies” (priority 1999, dated 2010)

Tests used:
[1] = Biodistribution study of ^166Ho-DOTMP in rats (Example 16); type: in vivo, Sprague Dawley rats; settings: rat, i.v.
Experimental: Sprague Dawley (S. D.) rats were injected intravenously (inj. i.v.) with a solution of ^166Ho-DOTMP (“Ho-DO”) containing ascorbic acid (asc) as a stabilizer. The animals were sacrificed and organs excised and counted in a radioactive well counter after decay to appropriate levels. Bone (femur) samples were counted and converted to a total bone percent injected dose using a factor of 25 times femur percent.
A second group of Sprague Dawley rats were injected intravenously with a solution of ^166Ho-DOTMP without having the stabilizer. The animals were sacrificed and organs excised and counted in a radioactive well counter after decay to appropriate levels. Bone (femur) samples were counted and converted to a total bone percent injected dose using a factor of 25 times femur percent.
FIG. 2 illustrates the data uptake base on the % injection dose. FIG. 3 illustrates the data uptake base on the % injection dose per gram(mass). FIG. 4 illustrates the data uptake base on the tissue/blood ratio. Abbreviations: Blo=blood; Tai=tail; Lun=lung; Liv=liver; Spl=spleen; Sto=stomach; Kid=kidneys; Int=intestines; Bon=bone; SD=standard deviation.

[2] = Stability of ^166Ho-DOTMP with and without stabilizer: radiochemical purity by ITLC, CEC, HPLC (Example 15); type: physicochemical
Experimental: Samples of ^166Ho-DOTMP were prepared according to the procedure in Example 1 using ascorbic acid, 55 mg/mL, as the stabilizer. Identical samples were prepared without ascorbic acid. The solutions were analyzed for radiochemical purity after 1 hour, 6 hours, 10 hours, 24 hours, and 48 hours, using Instant Thin Layer Chromatography (ILTC), Cation Exchange Chromatography (CEC) and High Performance Liquid Chromatography (HPLC).

[3] = system: rats inoculated with murine myeloma cells; settings: used with melphalan, followed by bone marrow transplant; cited from earlier work
multiple myeloma [4] = assay: Single patient: 40 Gy ^153Sm-EDTMP, melphalan 200 mg/m^2 (Example 14); type: in vivo, human; settings: present tense
Experimental: The patient, a person with an original diagnosis of multiple myeloma and diagnosed with primary refractory disease, is given a trace dose of ^153Sm-EDTMP, and the 24 hr whole body uptake is calculated. Based on dosimetry calculations a therapeutic dose is designed to deliver 40 Gy to the marrow. After the level of ^153Sm in the patient fell to ≦3.6 mCi, the patient receives a dose of 200 mg/m^2 of melphalan (I.V.). The patient's stem cells are reinfused two days after the melphalan, with G-CSF and antibiotics, as needed.

[5] = ^153Sm-EDTMP 30-50 Gy with melphalan up to 200 mg/m^2, response and urinary tract side effects; type: in vivo; settings: 30-50 Gy with melphalan as high as 200 mg/m^2
multiple myeloma [6] = settings: 140 mg/m^2 of body-surface area intravenously; cited from earlier work
[7] = 40 Gy to marrow, melphalan 200 mg/m^2, one patient

## O=P([O-])(O)CN1CCN(CP(=O)([O-])O)CCN(CP(=O)(O)O)CCN(CP(=O)([O-])O)CC1.[166Ho+3] [Ho-DO only]
[1]
  Percent Injection Dose, Blood: 0.29 Percent Injection Dose
  Percent Injection Dose, Intestine: 3.81 Percent Injection Dose
  Percent Injection Dose, Kidney: 0.72 Percent Injection Dose
  Percent Injection Dose, Liver: 2.40 Percent Injection Dose
  Percent Injection Dose, Lung: 0.00 Percent Injection Dose
  Percent Injection Dose, Spleen: 0.56 Percent Injection Dose
  Percent Injection Dose, Stomach: 0.20 Percent Injection Dose
  Percent Injection Dose, Tail: 3.21 Percent Injection Dose
  Percent Injection Dose/Gram, Blood: 0.02 Percent Injection Dose/Gram
  Percent Injection Dose/Gram, Intestine: 0.23 Percent Injection Dose/Gram
  Percent Injection Dose/Gram, Kidney: 0.38 Percent Injection Dose/Gram
  Percent Injection Dose/Gram, Liver: 0.31 Percent Injection Dose/Gram
  Percent Injection Dose/Gram, Lung: 0.04 Percent Injection Dose/Gram
  Percent Injection Dose/Gram, Spleen: 1.03 Percent Injection Dose/Gram
  Percent Injection Dose/Gram, Stomach: 0.05 Percent Injection Dose/Gram
  Percent Injection Dose/Gram, Tail: 0.51 Percent Injection Dose/Gram
  Tissue/Blood Ratio, Blood: 1.00
  Tissue/Blood Ratio, Bone: 296.80
  Tissue/Blood Ratio, Intestine: 13.80
  Tissue/Blood Ratio, Kidney: 22.84
  Tissue/Blood Ratio, Liver: 18.90
  Tissue/Blood Ratio, Lung: 2.34
  Tissue/Blood Ratio, Spleen: 62.09
  Tissue/Blood Ratio, Stomach: 3.24
  Tissue/Blood Ratio, Tail: 31.33
[1]; femur
  Percent Injection Dose/Gram, Bone: 4.84 Percent Injection Dose/Gram
[1]; total bone = 25 times femur percent
  Percent Injection Dose, Bone: 50.05 Percent Injection Dose
[2]; 1 hr
  radiochemical purity, CEC: 99.0
  radiochemical purity, HPLC: 100
  radiochemical purity, ITLC: 99.2
[2]; 6 hrs
  radiochemical purity, CEC: 97.8
  radiochemical purity, HPLC: 95.4
  radiochemical purity, ITLC: 98.1
[2]; 10 hrs
  radiochemical purity, CEC: 97.8
  radiochemical purity, HPLC: 94.9
  radiochemical purity, ITLC: 97.5
[2]; 24 hrs
  radiochemical purity, CEC: 97.2
  radiochemical purity, HPLC: 85.8
  radiochemical purity, ITLC: 97.6
[2]; 48 hrs
  radiochemical purity, CEC: 97.1
  radiochemical purity, ITLC: 96.5

## O=P([O-])(O)CN(CCN(CP(=O)([O-])O)CP(=O)(O)O)CP(=O)([O-])O.[153Sm+3] [^153Sm-EDTMP]
[3]
  survival: improves survival
Multiple myeloma [4]; [7]
  days post stem cell transplant to neutrophil engraftment (ANC >500): Fourteen
  days post transplant to platelet engraftment (>20,000): twenty
Multiple myeloma [4]; five months post treatment, one patient
  response: complete remission
[5]
  total response rates: > 90%
  urinary tract side effects: without significant urinary tract side effects

## N[C@@H](Cc1ccc(N(CCCl)CCCl)cc1)C(=O)O [melphalan, L-phenylalanine, 4-[bis(2-chloroethyl)amino]-]
Multiple myeloma [6]
  patients with partial or complete remissions: about 40%
